Source: PubChem BioAssay AID256 (DTP/NCI, 2004)
Several values for one entry are separate records, joined by “and”; a condition that tells them apart may be missing. Equal entries are not always repeated. Toxic doses and inconclusive results are not listed.

Tested on: CD2F1 mice, L1210 leukemia ip, survival T/C
Test: NCI In Vivo Anticancer Drug Screen. Data for tumor model L1210 Leukemia (intraperitoneal) in CD2F1 (CDF1) mice
Conditions: higher = longer survival
In short: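 Read-out first: treated-group measurement over vehicle-control measurement, expressed as a ratio. Animals bore a transplanted tumor line and were dosed with compound or vehicle.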

[1] = endpoint: mean survival time, dose: 100.0 mg/kg/injection, schedule: Q01DX009 (ip), vehicle: saline with Tween-80
[2] = endpoint: mean survival time, dose: 100.0 mg/kg/injection, schedule: Q04DX003 (ip), vehicle: saline with Tween-80
[3] = endpoint: mean survival time, dose: 200.0 mg/kg/injection, schedule: Q01DX009 (ip), vehicle: saline with Tween-80
[4] = endpoint: mean survival time, dose: 200.0 mg/kg/injection, schedule: Q04DX003 (ip), vehicle: saline with Tween-80
[5] = endpoint: mean survival time, dose: 400.0 mg/kg/injection, schedule: Q01DX009 (ip), vehicle: saline with Tween-80
[6] = endpoint: mean survival time, dose: 400.0 mg/kg/injection, schedule: Q04DX003 (ip), vehicle: saline with Tween-80
[7] = endpoint: mean survival time, dose: 12.5 mg/kg/injection, schedule: Q01DX009 (ip), vehicle: saline with Tween-80
[8] = endpoint: mean survival time, dose: 25.0 mg/kg/injection, schedule: Q01DX009 (ip), vehicle: saline with Tween-80
[9] = endpoint: mean survival time, dose: 50.0 mg/kg/injection, schedule: Q01DX009 (ip), vehicle: saline with Tween-80
[10] = endpoint: mean survival time, dose: 100.0 mg/kg/injection, schedule: Q01DX001 (ip), vehicle: saline with Tween-80
[11] = endpoint: mean survival time, dose: 200.0 mg/kg/injection, schedule: Q01DX001 (ip), vehicle: saline with Tween-80
[12] = endpoint: mean survival time, dose: 400.0 mg/kg/injection, schedule: Q01DX001 (ip), vehicle: saline with Tween-80

O=C(C/C(=N\C(=S)Nc1cc(C(F)(F)F)ccc1Cl)NO)N1CCCC1
T/C (endpoint: median survival time, dose: 12.5 mg/kg/injection, schedule: Q01DX009 (ip), vehicle: saline with Tween-80): 101 % of control
T/C (endpoint: median survival time, dose: 25.0 mg/kg/injection, schedule: Q01DX009 (ip), vehicle: saline with Tween-80): 97 % of control and 105 % of control
T/C (endpoint: median survival time, dose: 50.0 mg/kg/injection, schedule: Q01DX009 (ip), vehicle: saline with Tween-80): 102 % of control (2×) and 106 % of control
T/C (endpoint: median survival time, dose: 100.0 mg/kg/injection, schedule: Q01DX009 (ip), vehicle: saline with Tween-80): 108 % of control and 109 % of control
T/C (endpoint: median survival time, dose: 200.0 mg/kg/injection, schedule: Q01DX009 (ip), vehicle: saline with Tween-80): 121 % of control and 122 % of control and 123 % of control
T/C (endpoint: median survival time, dose: 300.0 mg/kg/injection, schedule: Q01DX009 (ip), vehicle: saline with Tween-80): 86 % of control

O=C1CCCN1.O=C1CCCN1.[Br][Co][Br]
T/C (endpoint: mean survival time, dose: 37.5 mg/kg/injection, schedule: Q01DX009 (ip), vehicle: saline): 102 % of control
T/C (endpoint: mean survival time, dose: 75.0 mg/kg/injection, schedule: Q01DX009 (ip), vehicle: saline): 107 % of control

Cc1c(-c2ccc(-c3ccccc3F)cc2)nc2ccc(F)cc2c1C(=O)O
T/C (endpoint: median survival time, dose: 5.2 mg/kg/injection, schedule: Q01DX009 (ip), vehicle: water): 153 % of control
T/C (endpoint: median survival time, dose: 6.25 mg/kg/injection, schedule: Q01DX009 (ip), vehicle: water): 165 % of control
T/C (endpoint: median survival time, dose: 8.6 mg/kg/injection, schedule: Q01DX009 (ip), vehicle: water): 166 % of control
T/C (endpoint: median survival time, dose: 12.5 mg/kg/injection, schedule: Q01DX009 (ip), vehicle: water): 168 % of control
T/C (endpoint: median survival time, dose: 14.4 mg/kg/injection, schedule: Q01DX009 (ip), vehicle: water): 171 % of control
T/C (endpoint: median survival time, dose: 24.0 mg/kg/injection, schedule: Q01DX009 (ip), vehicle: water): 172 % of control
T/C (endpoint: median survival time, dose: 25.0 mg/kg/injection, schedule: Q01DX009 (ip), vehicle: water): 179 % of control
T/C (endpoint: median survival time, dose: 40.0 mg/kg/injection, schedule: Q01DX009 (ip), vehicle: water): 175 % of control
T/C (endpoint: median survival time, dose: 50.0 mg/kg/injection, schedule: Q01DX009 (ip), vehicle: water): 108 % of control
T/C (endpoint: median survival time, dose: 66.7 mg/kg/injection, schedule: Q01DX009 (ip), vehicle: water): 116 % of control
T/C (endpoint: median survival time, dose: 100.0 mg/kg/injection, schedule: Q01DX009 (ip), vehicle: water): 93 % of control

Cc1ccc(NC(=O)c2cccc(Cl)c2)c(C)c1
T/C [1]: 100 % of control
T/C [2]: 96 % of control
T/C [3]: 94 % of control
T/C [4]: 100 % of control
T/C [5]: 96 % of control
T/C [6]: 93 % of control

CC(C#N)(Cc1ccccc1)Nc1ccccc1 (stereo not drawn)
T/C [2]: 97 % of control
T/C [4]: 91 % of control

c1ccc2c(c1)c1ccccc1n2CCCCn1c2ccccc2c2ccccc21
T/C [7]: 95 % of control
T/C [8]: 87 % of control
T/C [9]: 101 % of control and 102 % of control
T/C [1]: 97 % of control
T/C [3]: 93 % of control

O=C1c2ccccc2C(=O)c2c(NCCSCCO)ccc(NCCSCCO)c21
T/C (endpoint: mean survival time, dose: 16.0 mg/kg/injection, schedule: Q01DX009 (ip), vehicle: Klucel (hydroxypropylcellulose) (HPC)): 100 % of control
T/C (endpoint: mean survival time, dose: 32.0 mg/kg/injection, schedule: Q01DX009 (ip), vehicle: Klucel (hydroxypropylcellulose) (HPC)): 102 % of control
T/C (endpoint: mean survival time, dose: 64.0 mg/kg/injection, schedule: Q01DX009 (ip), vehicle: Klucel (hydroxypropylcellulose) (HPC)): 93 % of control
T/C (endpoint: mean survival time, dose: 128.0 mg/kg/injection, schedule: Q01DX009 (ip), vehicle: Klucel (hydroxypropylcellulose) (HPC)): 93 % of control
T/C (endpoint: mean survival time, dose: 256.0 mg/kg/injection, schedule: Q01DX009 (ip), vehicle: Klucel (hydroxypropylcellulose) (HPC)): 102 % of control

CNC(=O)C1CCC(CC2CCCCC2)CC1 (stereo not drawn)
T/C [10]: 93 % of control
T/C [11]: 93 % of control
T/C [12]: 102 % of control

Cc1cc([N+](=O)[O-])c(Cl)cc1NS(=O)(=O)c1ccccc1
T/C [9]: 103 % of control
T/C [1]: 101 % of control
T/C [3]: 94 % of control

O=S(=O)(O)c1cccnc1
T/C (endpoint: mean survival time, dose: 100.0 mg/kg/injection, schedule: Q04DX002 (ip), vehicle: saline): 94 % of control
T/C (endpoint: mean survival time, dose: 200.0 mg/kg/injection, schedule: Q04DX002 (ip), vehicle: saline): 94 % of control
T/C (endpoint: mean survival time, dose: 400.0 mg/kg/injection, schedule: Q04DX002 (ip), vehicle: saline): 97 % of control

CC(=O)Nc1c(Cl)c(Cl)c(Cl)c2c1-c1ccc(Cl)cc1C2
T/C [10]: 95 % of control
T/C [1]: 98 % of control
T/C [11]: 101 % of control
T/C [3]: 103 % of control
T/C [12]: 100 % of control
T/C [5]: 103 % of control

N/C(=N/OCc1ccccc1)c1ncn(C2CCCC2)c1NC=O
T/C (endpoint: mean survival time, dose: 100.0 mg/kg/injection, schedule: Q01DX001 (ip), vehicle: other): 112 % of control
T/C (endpoint: mean survival time, dose: 200.0 mg/kg/injection, schedule: Q01DX001 (ip), vehicle: other): 104 % of control
T/C (endpoint: mean survival time, dose: 400.0 mg/kg/injection, schedule: Q01DX001 (ip), vehicle: other): 102 % of control

CCN(CC)C(=O)c1ccccc1
T/C (endpoint: mean survival time, dose: 100.0 mg/kg/injection, schedule: Q01DX009 (ip), vehicle: saline): 98 % of control
T/C (endpoint: mean survival time, dose: 200.0 mg/kg/injection, schedule: Q01DX009 (ip), vehicle: saline): 98 % of control

N#Cc1cnn(-c2ccc([N+](=O)[O-])cc2)c1N
T/C [2]: 111 % of control
T/C [4]: 100 % of control
T/C [6]: 100 % of control

O=C(c1ccccc1)C(Sc1ccccc1)Sc1ccccc1
T/C (endpoint: median survival time, dose: 50.0 mg/kg/injection, schedule: Q04DX002 (ip), vehicle: saline with Tween-80): 100 % of control
T/C (endpoint: median survival time, dose: 100.0 mg/kg/injection, schedule: Q04DX002 (ip), vehicle: saline with Tween-80): 100 % of control
T/C (endpoint: median survival time, dose: 200.0 mg/kg/injection, schedule: Q04DX002 (ip), vehicle: saline with Tween-80): 100 % of control
T/C (endpoint: median survival time, dose: 400.0 mg/kg/injection, schedule: Q04DX002 (ip), vehicle: saline with Tween-80): 110 % of control

O=C1OC2(c3ccc(O)cc3Oc3cc(O)ccc32)C2C1C1(Cl)C(Cl)=C(Cl)C2(Cl)C1(Cl)Cl (stereo not drawn)
T/C [1]: 101 % of control
T/C [3]: 97 % of control
T/C [5]: 95 % of control

C[Si](C)(C)n1nnn(-c2ccccc2)c1=O
T/C [7]: 97 % of control and 100 % of control
T/C [8]: 97 % of control
T/C [9]: 97 % of control and 101 % of control
T/C [1]: 100 % of control and 103 % of control
T/C [3]: 100 % of control and 103 % of control
T/C [5]: 101 % of control

CNS(=O)(=O)c1ccc2c(c1)[nH]c(=S)n2C
T/C [1]: 97 % of control
T/C [2]: 96 % of control
T/C [3]: 93 % of control
T/C [4]: 92 % of control
T/C [5]: 93 % of control
T/C [6]: 90 % of control

S=C(NCCSSCCNC(=S)Nc1ccccc1)Nc1ccccc1
T/C [2]: 98 % of control
T/C [4]: 94 % of control
T/C [6]: 86 % of control

COC(=O)CC(=O)CBr
T/C (endpoint: mean survival time, dose: 5.0 mg/kg/injection, schedule: Q01DX001 (ip), vehicle: saline with Tween-80): 95 % of control
T/C (endpoint: mean survival time, dose: 5.0 mg/kg/injection, schedule: Q01DX009 (ip), vehicle: saline with Tween-80): 100 % of control
T/C (endpoint: mean survival time, dose: 10.0 mg/kg/injection, schedule: Q01DX001 (ip), vehicle: saline with Tween-80): 95 % of control
T/C (endpoint: mean survival time, dose: 10.0 mg/kg/injection, schedule: Q01DX009 (ip), vehicle: saline with Tween-80): 97 % of control
T/C (endpoint: mean survival time, dose: 20.0 mg/kg/injection, schedule: Q01DX001 (ip), vehicle: saline with Tween-80): 95 % of control
T/C (endpoint: mean survival time, dose: 20.0 mg/kg/injection, schedule: Q01DX009 (ip), vehicle: saline with Tween-80): 97 % of control

CCCOC(=O)C1CCCCC1C(=O)OCCC (stereo not drawn)
T/C (endpoint: mean survival time, dose: 100.0 mg/kg/injection, schedule: Q04DX003 (ip), vehicle: saline): 98 % of control
T/C (endpoint: mean survival time, dose: 200.0 mg/kg/injection, schedule: Q04DX003 (ip), vehicle: saline): 98 % of control
T/C (endpoint: mean survival time, dose: 400.0 mg/kg/injection, schedule: Q04DX003 (ip), vehicle: saline): 104 % of control

CN(C)Cc1[c-]c(CN(C)C)ccc1.[Cl][Pt]
T/C (endpoint: median survival time, dose: 1.56 mg/kg/injection, schedule: Q04DX003 (ip), vehicle: saline): 101 % of control
T/C (endpoint: median survival time, dose: 3.12 mg/kg/injection, schedule: Q04DX003 (ip), vehicle: saline): 91 % of control and 107 % of control
T/C (endpoint: median survival time, dose: 6.25 mg/kg/injection, schedule: Q04DX003 (ip), vehicle: saline): 111 % of control
T/C (endpoint: median survival time, dose: 12.5 mg/kg/injection, schedule: Q04DX003 (ip), vehicle: saline): 96 % of control and 107 % of control
T/C (endpoint: median survival time, dose: 25.0 mg/kg/injection, schedule: Q04DX003 (ip), vehicle: saline): 100 % of control and 107 % of control
T/C (endpoint: median survival time, dose: 50.0 mg/kg/injection, schedule: Q04DX003 (ip), vehicle: saline): 100 % of control and 101 % of control
T/C (endpoint: median survival time, dose: 100.0 mg/kg/injection, schedule: Q04DX003 (ip), vehicle: saline): 98 % of control
